Values quoted from earlier work as cited in patent US20200095192A1, “BIODEGRADABLE DIETHANOLAMINE DERIVATIVE CHELATING AGENT AND PREPARATION PROCESS THEREOF” (PTT Global Chemical Public Company Limited, priority 2017, published 2020).
Where two headings read alike, the source gives them in different places.

Tests used:
[1] = tin (Pb^2+); previous disclosed chelating agent; cited from earlier work
[2] = calcium (Ca^2+); previous disclosed chelating agent; cited from earlier work
[3] = mercury (Hg^2+); previous disclosed chelating agent; cited from earlier work
[4] = copper (Cu2+); previous disclosed chelating agent; cited from earlier work
[5] = iron (Fe^2+); previous disclosed chelating agent; cited from earlier work
[6] = cobolt (Co^2+); previous disclosed chelating agent; cited from earlier work
[7] = zinc (Zn^2+); previous disclosed chelating agent; cited from earlier work
[8] = barium (Ba^2+); previous disclosed chelating agent; cited from earlier work
[9] = magnesium (Mg^2+); previous disclosed chelating agent; cited from earlier work
[10] = manganese (Mn^2+); previous disclosed chelating agent; cited from earlier work
[11] = cadmium (Cd^2+); previous disclosed chelating agent; cited from earlier work
[12] = aluminium (Al^3+); previous disclosed chelating agent; cited from earlier work
[13] = iron (Fe^3+); previous disclosed chelating agent; cited from earlier work
[14] = strontium (Sr^2+); previous disclosed chelating agent; cited from earlier work
[15] = nickel (Ni^2+); previous disclosed chelating agent; cited from earlier work

| Structure (SMILES) | stability constant [1] | stability constant [2] | stability constant [3] | stability constant [4] | stability constant [5] | stability constant [6] | stability constant [7] | stability constant [8] | stability constant [9] | stability constant [10] | stability constant [11] | stability constant [12] | stability constant [13] | stability constant [14] | stability constant [15] |
| --- | --- | --- | --- | --- | --- | --- | --- | --- | --- | --- | --- | --- | --- | --- | --- |
| O=C(O)CC[C@@H](C(=O)O)N(CC(=O)O)CC(=O)O [GLDA, glutamic acid N,N-diacetic acid] | 10.5 | 5.9 | 14.3 | 13.1 | 8.7 | 10.0 | 10.0 | 3.5 | 5.2 | 7.6 | 9.1 | 12.2 | 11.7 | 4.1 | 10.9 |
| O=C(O)CN(CC(=O)O)CC(=O)O [NTA, nitrilotriacetic acid] | 11.5 | 6.4 | 14.3 | 13.0 | 8.9 | 10.4 | 10.7 | 4.8 | 5.5 | 7.5 | 9.8 | 11.4 | 15.9 | 5.0 | 11.5 |
